# According to US10988465B2, “CXCR4 inhibitors and uses thereof” (X4 Pharmaceuticals, Inc., priority 2016, dated 2021):
# Assays:
# [1] = target: T1, Jurkat cells expressing CXCR4 (Homo sapiens, UniProt P61073); experiment: Chemokine (CXCL12-AF647) binding inhibition assay; settings: CXCL12-AF647 25 ng/mL, read-out: IC50 CXCL-12 binding Jurkat
# T1 construct: endogenous in cells; host or cells: Jurkat
# Procedure: Chemokine (CXCL12-AF647) Binding Inhibition Assay
# Jurkat cells expressing CXCR4 were washed once with assay buffer (Hanks' balanced salt solution with 20 mM HEPES buffer and 0.2% bovine serum albumin, pH 7.4) and then incubated for 15 min at room temperature with the test compounds diluted in assay buffer at dose-dependent concentrations. Subsequently, CXCL12-AF647 (25 ng/mL) was added to the compound-incubated cells. The cells were incubated for 30 min at room temperature. Thereafter, the cells were washed twice in assay buffer, fixed in 1% paraformaldehyde in PBS, and analyzed on the FL4 channel of a FACSCalibur flow cytometer equipped with a 635-nm red diode laser (Becton Dickinson, San Jose, Calif., USA).
# The percentages of inhibition of CXCL12-AF647 binding were calculated according to the formula: [1−((MFI−MFINC)/(MFIPC−MFINC))]×100 where MFI is the mean fluorescence intensity of the cells incubated with CXCL12-AF647 in the presence of the inhibitor, MFINC is the mean fluorescence intensity measured in the negative control (i.e., autofluorescence of unlabeled cells), and MFIPC is the mean fluorescence intensity of the positive control (i.e., cells exposed to CXCL12-AF647 alone).
# [2] = target: T2, CXCR-4 transfected U87 cell line (U87.CXCR4) (Homo sapiens, UniProt P61073); experiment: Intracellular CXCL-12-induced calcium mobilization assay (FLIPR); assay type: cell-based; settings: U87.CXCR4 cells; CXCL-12 25-50 ng/mL; compound added 15 min before; read-out: IC50 CXCL-12 Ca^2+ flux U87.CXCR4+
# T2 construct: expressed in transfected cells; host or cells: U87 (U87.CXCR4)
# Procedure: Example 36: REGA Screening Assay
# Intracellular CXCL-12-Induced Calcium Mobilization Assay
# Intracellular calcium mobilization induced by chemokines or chemokine-derived peptides were evaluated using a calcium responsive fluorescent probe and a FLIPR system. The CXCR-4 transfected U87 cell line (U87.CXCR4) cells were seeded in gelatine-coated black-wall 96-well plates at 20,000 cells per well and incubated for 12 hours. Cells were then loaded with the fluorescent calcium probe Fluo-2 acetoxymethyl at 4 μM final concentration in assay buffer (Hanks' balanced salt solution with 20 mM HEPES buffer and 0.2% bovine serum albumin, pH 7.4) for 45 min at 37° C. The intracellular calcium mobilization induced by the CXCL-12 (25-50 ng/mL) was then measured at 37° C. by monitoring the fluorescence as a function of time in all the wells simultaneously using a fluorometric imaging plate reader (FLIPR Tetra, Molecular Devices).
# [3] = in vitro; settings: human, Caco-2, pH 7.4
# Procedure: Example 37: Caco-2 Permeability Assay
# The goal of this assay was to evaluate the intestinal absorption potential of drug candidates using Caco-2 cell lines.
# HBSS buffer with 0.3% DMSO and 5 μM LY: add 150 μL DMSO and 50 μL LY (5 mM) into 50 ml HBSS buffer (pH 7.4).
# HBSS buffer with 0.1% DMSO and 5 μM LY: add 50 μL DMSO and 50 μL LY (5 mM) into 50 mL HBSS buffer (pH 7.4).
# HBSS buffer with 0.3% DMSO: add 150 μL DMSO into 50 ml HBSS buffer (pH 7.4).
# HBSS buffer with 0.1% DMSO: add 50 μL DMSO into 50 ml HBSS buffer (pH 7.4).
# Prepare HBSS buffer with 0.4% DMSO: add 200 μL DMSO into 50 ml HBSS buffer (pH 7.4).
# Prepare HBSS buffer with 0.4% DMSO and 5 μM LY: add 200 μL DMSO and 50 μL LY (5 mM) into 50 ml HBSS buffer (pH 7.4).
# 4. Measure TEER Take cell culture plate out of incubator, wash the cell monolayers with HBSS buffer, and then measure TEER values at Rm temperature. 5. Centrifuge Centrifuge the compound solution (from step 3) at 4000 rpm for 5 min before loading to donor chambers. 6. Dosing Add solution based on the volumes listed in the following table (make sure to take extra 100 μL of donor sample for T0 as Backup).
# 7. Apical LYT0 samples To determine LY concentration in the apical chember, take 100 μL sample from apical chambers into an opaque plate for LYT0. 8. Prewarm Prewarm apical and basolateral plates at 37° C. for about 5 min, then begin transport by placing the apical plate onto basolateral plate. 9. Incubation Keep the plates in incubator at 37° C. for 90 min. 10. Standard Curve preparation
# 11. Transport termination Separate the apical plate from the basolateral plate after 90-min incubation.
# Receiver sample: 60 μL of receiver sample+60 μL ACN with IS (Osalmid or Imipramine)
# Study details: Test concentration 10 μM
# Test systems: Caco-2/HBSS solution
# Incubation conditions: 0, 90 min at 37° C.
# Sample size: Duplicates (n=2)
# Bioanalytical method: LC-MS/MS
# For Millicell-24 Cell Culture Plates: surface area of the membrane=0.7 cm^2, VA=0.8 mL (A-to-B) or 0.4 mL (B-to-A)
# 1. Papp values were calculated based on calculated concentrations.
# The compound numbers correspond to the compound numbers in Table 1.
# T2 sequence (P61073 whole entry): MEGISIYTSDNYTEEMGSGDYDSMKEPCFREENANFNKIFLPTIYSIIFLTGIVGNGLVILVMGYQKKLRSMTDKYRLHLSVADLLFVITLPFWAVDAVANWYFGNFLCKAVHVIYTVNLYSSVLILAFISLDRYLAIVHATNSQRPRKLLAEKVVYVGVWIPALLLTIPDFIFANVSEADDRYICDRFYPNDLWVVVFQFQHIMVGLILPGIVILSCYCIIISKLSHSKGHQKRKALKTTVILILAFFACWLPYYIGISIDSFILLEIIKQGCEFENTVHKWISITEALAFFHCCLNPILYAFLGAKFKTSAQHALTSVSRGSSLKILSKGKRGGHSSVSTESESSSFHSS
# T1 sequence (P61073 whole entry): as above
Compound,IC50 [1] [nM],IC50 [2] [nM],"Papp A→B at 90 min, 10 μM [3] [×10⁻⁶ cm/s]","Papp B→A at 90 min, 10 μM [3] [×10⁻⁶ cm/s]","efflux ratio at 90 min, 10 μM [3]"
CN1CCN(c2cccc3nc([C@H]4CCC[C@@H](c5ncccc5C(F)(F)F)N4C)[nH]c23)CC1 (relative stereo) [I-58],0.01 to 100,≥ 1000,10 to 30,10 to 30,0.1 to 10
CCN1CCN(c2cccc3nc([C@H]4CCC[C@@H](c5ncccc5C(F)(F)F)N4C)[nH]c23)CC1 (relative stereo) [I-59],0.01 to 100,≥ 1000,–,–,–
"Cc1cccnc1[C@@H]1CCC[C@H](c2nc3cccc(N4CCN(C)CC4)c3[nH]2)N1C (single isomer, unassigned) [I-3a]",0.01 to 100,0.01 to 100,0.1 to 10,0.1 to 10,–
"Cc1cccnc1[C@H]1CCC[C@@H](c2nc3cccc(N4CCN(C)CC4)c3[nH]2)N1C (single isomer, unassigned) [I-3b]",0.01 to 100,0.01 to 100,0.1 to 10,0.1 to 10,–
CN1CCN(c2cccc3nc([C@H]4CCC[C@@H](c5ncccc5C5CC5)N4C)[nH]c23)CC1 (stereo in doubt) [I-61],0.01 to 100,0.01 to 100,10 to 30,10 to 30,0.1 to 10
CN1CCN(c2cccc3nc([C@H]4CCC[C@@H](c5nccn6cccc56)N4C)[nH]c23)CC1 (stereo in doubt) [I-90],0.01 to 100,100 to 1000,10 to 30,10 to 30,0.1 to 10
Cc1cccnc1[C@@H]1CCCC(c2nccn2CCCc2ccccn2)N1 (stereo in doubt) [I-178],100 to 1000,≥ 1000,–,–,–
"Cc1cccnc1[C@@H]1CCC[C@H](c2nc3ccccc3[nH]2)N1CCCCN [I-1, 4-((2R,6S)-2-(1H-benzo[d]imidazol-2-yl)-6-(3-methylpyridin-2-yl)piperidin-1-yl)butan-1-amine]",0.01 to 100,100 to 1000,0.1 to 10,0.1 to 10,10 to 30
"Cc1cccnc1[C@@H]1CCC[C@H](c2nc3ccccc3n2CCCN)N1C [I-2, 3-(2-((2R,6S)-1-methyl-6-(3-methylpyridin-2-yl)piperidin-2-yl)-1H-benzo[d]imidazol-1-yl)propan-1-amine]",0.01 to 100,0.01 to 100,0.1 to 10,10 to 30,> 30
"Cc1cccnc1[C@@H]1CCC[C@H](c2nc3ccccc3n2CCCCN)N1C [I-4, 4-(2-((2R,6S)-1-methyl-6-(3-methylpyridin-2-yl)piperidin-2-yl)-1H-benzo[d]imidazol-1-yl)butan-1-amine]",0.01 to 100,0.01 to 100,–,–,–
"Cc1cccnc1[C@@H]1CCC[C@H](c2nc3ccccc3n2CCCN(C)C)N1C [I-5, N,N-dimethyl-3-(2-((2R,6S)-1-methyl-6-(3-methylpyridin-2-yl)piperidin-2-yl)-1H-benzo[d]imidazol-1-yl)propan-1-amine]",0.01 to 100,0.01 to 100,0.1 to 10,0.1 to 10,0.1 to 10
"Cc1cccnc1[C@@H]1CCC[C@H](c2nc3ccccc3n2CCn2ccnc2)N1C [I-6, 1-(2-(1H-imidazol-1-yl)ethyl)-2-((2R,6S)-1-methyl-6-(3-methylpyridin-2-yl)piperidin-2-yl)-1H-benzo[d]imidazole]",0.01 to 100,100 to 1000,–,–,–
"Cc1cccnc1[C@@H]1CCC[C@H](c2nc3ccccc3n2CCn2cccn2)N1C [I-7, 1-(2-(1H-pyrazol-1-yl)ethyl)-2-((2R,6S)-1-methyl-6-(3-methylpyridin-2-yl)piperidin-2-yl)-1H-benzo[d]imidazole]",0.01 to 100,≥ 1000,10 to 30,10 to 30,0.1 to 10
"Cc1cccnc1[C@@H]1CCC[C@H](c2nc3ccccc3n2CCc2ccccn2)N1C [I-8, 2-((2R,6S)-1-methyl-6-(3-methylpyridin-2-yl)piperidin-2-yl)-1-(2-(pyridin-2-yl)ethyl)-1H-benzo[d]imidazole]",100 to 1000,≥ 1000,–,–,–
"CN1CCN(c2cccc3nc([C@H]4CCC[C@@H](c5ncccc5C#N)N4C)[nH]c23)CC1 [I-10, 2-((2S,6R)-1-methyl-6-(7-(4-methylpiperazin-1-yl)-1H-benzo[d]imidazol-2-yl)piperidin-2-yl)nicotinonitrile]",100 to 1000,≥ 1000,10 to 30,10 to 30,0.1 to 10
"Cc1cccnc1[C@@H]1CCC[C@H](c2nc3cccc(C4CCNCC4)c3[nH]2)N1C [I-11, 2-((2R,6S)-1-methyl-6-(3-methylpyridin-2-yl)piperidin-2-yl)-7-(piperidin-4-yl)-1H-benzo[d]imidazole]",0.01 to 100,0.01 to 100,0.1 to 10,10 to 30,> 30
"Cc1cccnc1[C@@H]1CCC[C@H](c2nc3ccccc3n2CC2CCCNC2)N1C (stereo partly drawn) [I-12, 2-((2R,6S)-1-methyl-6-(3-methylpyridin-2-yl)piperidin-2-yl)-1-(piperidin-3-ylmethyl)-1H-benzo[d]imidazole]",0.01 to 100,0.01 to 100,0.1 to 10,10 to 30,10 to 30
"Cc1cccnc1[C@@H]1CCC[C@H](c2nc3ccccc3n2CCCO)N1C [I-20, 3-(2-((2R,6S)-1-methyl-6-(3-methylpyridin-2-yl)piperidin-2-yl)-1H-benzo[d]imidazol-1-yl)propan-1-ol]",0.01 to 100,100 to 1000,–,–,–
Cc1cccnc1[C@@H]1CCC[C@H](c2nc3cccc(Oc4cccnc4)c3[nH]2)N1C [I-77],100 to 1000,≥ 1000,–,–,–
Cc1cccnc1[C@@H]1CCC[C@H](c2nc3cccc(Oc4ccncc4)c3[nH]2)N1C [I-78],≥ 1000,≥ 1000,–,–,–
CN1CCN(c2cccc3nc([C@H]4CCC[C@@H](c5ncccc5Cl)N4)n(C)c23)CC1 [I-124],0.01 to 100,0.01 to 100,–,–,–
Cc1cccc(F)c1[C@@H]1CCC[C@H](c2nc3cccc(N4CCN(C)CC4)c3[nH]2)N1C [I-138],≥ 1000,≥ 1000,–,–,–
Cc1cccnc1[C@@H]1CCC[C@H](c2nc3ccccc3n2CCCO)N1 [I-156],100 to 1000,≥ 1000,–,–,–
COCCCn1c([C@H]2CCC[C@@H](c3ncccc3C)N2C)nc2ccccc21 [I-157],0.01 to 100,≥ 1000,–,–,–
"COCCc1ccc(OCC(O)CNC(C)C)cc1 (stereo not drawn) [Metoprolol, reference compound]",–,–,> 10,> 10,–
